In article PMC8936055 (Journal of natural products, 2022):
Read-outs that look alike come from different tables or passages of the source.

Tests used:
SARS-CoV-2 [1] = format: cell-based; conditions: Calu-3 cells; for Suppression of viral infection relative to DMSO control, initial screen: 0.5 μM for 1, 1 μM for the others, 48 h, Figure 3; for Suppression of viral infection, follow-up experiment: Figure 4
SARS-CoV-2 [2] = conditions: cited from earlier work
SARS-CoV-2 [3] = conditions: air-liquid interface culture, test concentration 10 μM, 48 h
[4] = tested on: influenza A virus subtype H1N1; conditions: cited from earlier work
[5] = tested on: primary human airway cells; conditions: air-liquid interface, 48 h, Figure 5B
Plasmodium falciparum = conditions: human malarial parasite Plasmodium falciparum; cited from earlier work
[6] = cited from earlier work
HIV-1 strain UG/92/029 = conditions: read-out: IC50 against HIV-1 strain UG/92/029; cited from earlier work
HIV-1 strain 96USHIPS7 = conditions: read-out: IC50 against HIV-1 strain 96USHIPS7; cited from earlier work

In the case of `CC(C)=CCC[C@@H](C)[C@H]1CC[C@@]2(C(=O)O)C3=C(CC[C@]12C)[C@@]1(C)CC[C@H](O[C@@H]2OC[C@H](O)[C@H](O[C@@H]4OC[C@H](O)[C@H](O[C@@H]5O[C@H](CO)[C@H](O)[C@H](O)[C@H]5O)[C@H]4O)[C@H]2O[C@@H]2O[C@H](CO)[C@H](O)[C@H](O)[C@H]2O)C(C)(C)C1CC3` (stereo partly shown) [Compound 13, formoside], the “Reduction of SARS-CoV-2 infection in a subsequent experiment” value (SARS-CoV-2 [1]; data not shown) is reported as “not replicated”.
For plitidepsin [Compound 4], the “Potency against SARS-CoV-2 relative to remdesivir” value (SARS-CoV-2 [2]) is given as “more than 20 times”.
In the case of `C[C@H]1CC[C@H]2C(C)(C)CCC[C@]23Oc2ccc(O)cc2C[C@]13C` [Compound 2, (+)-aureol], the “Suppression of viral infection relative to DMSO control, initial screen” value (SARS-CoV-2 [1]) is reported as “significantly suppressed viral infection”, the “Suppression of viral infection, follow-up experiment” value (“Suppression … follow-up experiment” for short) (SARS-CoV-2 [1]; 10 μM) is reported as “significant suppression of viral infection” and the “Effect on SARS-CoV-2 replication in primary human airway cells” value (SARS-CoV-2 [3]) is reported as “ineffective”.
In the case of `C[C@H]1CC[C@H]2C(C)(C)[C@@H](O)CC[C@]23Oc2c(c(O)cc4c2CNC4=O)C[C@]13C` [Compound 16, stachyflin], the “Activity against influenza A virus subtype H1N1” value [4] is listed as “nanomolar activity”.
With `CC(=O)C[C@]1(O)c2ccccc2-[n+]2ccc3c([nH]c4ccccc43)c21.O=C([O-])C(F)(F)F` [Compound 1, homofascaplysin A] the “Suppression of viral infection relative to DMSO control, initial screen” value (SARS-CoV-2 [1]) was “significantly suppressed viral infection”, the “Suppression … follow-up experiment” value (SARS-CoV-2 [1]; 2.8 μM) was “significant suppression of viral infection” and the “Effect on adenoviral transduction (toxicity control)” value [5] was “did not affect adenoviral transduction”.
In the case of `CC1=C2Cc3cc(ccc3O)C(=O)O[C@H](C(C)(C)Br)CC[C@](C)(O)[C@H](Br)CC[C@]2(C)[C@@H](Br)CC1` [Compound 3, bromophycolide A], the “Blood stage antimalarial activity” value (Plasmodium falciparum) is listed as “sub-micromolar”, the Toxicity in vivo ([6]; malaria mouse model) is listed as “low toxicity” and the Bioavailability in vivo ([6]; mouse, in vivo) is listed as “reasonable bioavailability”. For the same compound, the In vivo half-life ([6]; mouse, in vivo) was “short in vivo half-life”, the Liver metabolism ([6]; mouse, in vivo) was “rapid liver metabolism” and the IC50 (HIV-1 strain UG/92/029) was 9.1 µM. For the same compound, the “Suppression of viral infection relative to DMSO control, initial screen” value (SARS-CoV-2 [1]) was “significantly suppressed viral infection”, the “Suppression … follow-up experiment” value (SARS-CoV-2 [1]; 10 μM) was “significant suppression of viral infection” and the IC50 (HIV-1 strain 96USHIPS7) was 9.8 µM. The “Effect on SARS-CoV-2 replication in primary human airway cells” value (SARS-CoV-2 [3]) was “ineffective”.
